# In PubChem BioAssay AID588567 (Sanford-Burnham Center for Chemical Genomics, 2011):
# The source made the active and inactive calls.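 The calls were made as follows: active = mean IC50 at or below 20 µM; inactive = the rest.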
# Test system: CHO-CHOP cells viability, ATPlite luminescence, 24 h
# Experiment: CHO-CHOP cell viability loss – 24 h exposure, ATPlite luminescence, cytotoxicity control for UPR adaptive arm activator project, SAR follow-up (AID 588567)
row,SMILES,IC50
1,O=C(Nc1ccc(Cl)cc1)c1cc(-c2ccncc2)nc2ccccc12,63.7 µM (inactive)
2,O=C(Nc1ccc(F)cc1)c1cc(-c2ccncc2)nc2ccccc12,> 80 µM (inactive)
3,O=C(Nc1ccc(Br)c(C(F)(F)F)c1)c1cc(-c2ccncc2)nc2ccccc12,50.1 µM (inactive)
4,O=C(Nc1ccc(C(F)(F)F)cc1)c1cc(-c2ccncc2)nc2ccccc12,61.3 µM (inactive)
5,Cc1ccc(NC(=O)c2cc(-c3ccncc3)nc3ccccc23)cc1,> 80 µM (inactive)
6,Cc1nc(Nc2nc(-c3ccccc3)cc(=O)[nH]2)nc2ccccc12,30.2 µM (inactive)
7,Cc1cc(Br)cc(NC(=O)c2cc(-c3ccncc3)nc3ccccc23)c1,64.8 µM (inactive)
